In BindingDB's records for doi:10.7270/Q2DF6PMF (Nmmlsc, 2007):

Molecular target: T1, N-formyl peptide receptor 2 (Homo sapiens, UniProt P25090)
T1 sequence (P25090 whole entry): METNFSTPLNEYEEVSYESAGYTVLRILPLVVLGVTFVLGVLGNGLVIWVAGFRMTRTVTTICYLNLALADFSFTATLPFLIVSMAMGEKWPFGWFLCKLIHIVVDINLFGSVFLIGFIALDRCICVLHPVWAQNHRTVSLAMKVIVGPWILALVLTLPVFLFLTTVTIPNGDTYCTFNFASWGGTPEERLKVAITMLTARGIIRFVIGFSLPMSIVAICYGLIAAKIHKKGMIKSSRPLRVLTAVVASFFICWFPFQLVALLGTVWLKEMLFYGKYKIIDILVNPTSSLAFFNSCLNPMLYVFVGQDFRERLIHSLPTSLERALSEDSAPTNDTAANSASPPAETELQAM
Assay: FPRL1 binding inhibitor potency, dose response, cell-based, FPR counter-screen, fluorescent ligand (AID 520)

Row | Compound | IC50 [µM] | Ki [µM] | IC50 (inactive by the depositor's call) [µM]
1 | Cc1[nH]n2c(=O)cc(-c3ccc([N+](=O)[O-])cc3)nc2c1-c1ccccc1 [MLS000547439] |  |  | 31.7
2 | CCCCNC(=O)c1sc(=S)n2c1[nH]c(=O)c1ccccc12 [N-butyl-5-oxo-1-thioxo-4,5-dihydro[1,3]thiazolo[3,4-a]quinazoline-3-carboxamide] | > 66.7 |  | 
3 | C[N+]1(C)[C@@H]2CC(OC(=O)[C@H](CO)c3ccccc3)C[C@H]1[C@@H]1O[C@@H]12 (stereo partly drawn) [SCOPOLAMINE METHYL NITRATE] | > 66.7 |  | 
4 | CCc1c(C)nc2c(C#N)c(C)[nH]n2c1=O [SMR000013340] | > 66.7 |  | 
5 | Cc1ccc(NC(=O)C2C(=O)N(CCO)C3(C)CC2c2ccccc2O3)cc1 (stereo not drawn) [SMR000015827] | > 66.7 |  | 
6 | COc1ccccc1-n1c(CNC(=O)c2ccco2)nnc1SCC(=O)Nc1ccc(F)cc1 [SMR000021507] | > 66.7 |  | 
7 | CCN(CC)c1ccc(C=NC(C#N)C(=N)C#N)cc1 (stereo not drawn) [SMR000023871] | > 66.7 | > 40.3 | 
8 | COc1cccc(OC)c1C(=O)C(C#N)c1nc2ccccc2[nH]1 (stereo not drawn) [SMR000024183] | > 66.7 | > 40.3 | 
9 | O=S(=O)(c1c[nH]cn1)N1CCc2ccccc21 [SMR000026956] | > 66.7 |  | 
10 | CCC(Sc1nc2c(c(=O)[nH]1)CCC2)C(=O)Nc1cccc(OC)c1 (stereo not drawn) [SMR000028729] | > 66.7 |  | 
11 | O=C(NC1CCCCC1)c1sc(=S)n2c1[nH]c(=O)c1ccccc12 [SMR000030293] | > 66.7 |  | 
12 | CCC(=O)Nc1c(C#N)c2nc3ccccc3nc2n1-c1ccccc1C [SMR000039884] | > 66.7 |  | 
13 | Cc1[nH]n2c(=O)c(C#N)c(-c3ccccc3)nc2c1-c1ccccc1 [SMR000047798] | > 66.7 |  | 
14 | CN1C(=O)/C(=C2\SC(=S)N(C(CCC(=O)O)C(=O)O)C2=O)c2ccccc21 (stereo not drawn) [SMR000054993] | > 66.7 |  | 
15 | CCCc1nc2ccccc2c2nc(N)nn12 [SMR000073509] | > 66.7 |  | 
16 | Cc1[nH]n2c(=O)c3c(nc2c1-c1ccccc1)CCC3 [SMR000082027] | > 66.7 |  | 
17 | COc1ccccc1-c1c(C)oc2cc(OC(=O)c3ccco3)ccc2c1=O [[3-(2-methoxyphenyl)-2-methyl-4-oxidanylidene-chromen-7-yl] furan-2-carboxylate] | > 66.7 |  | 
18 | CCOC(=O)Cc1cc(=O)n2[nH]c(C)c(-c3ccc(Cl)cc3)c2n1 [ethyl 2-[3-(4-chlorophenyl)-2-methyl-7-oxo-1H-pyrazolo[1,5-a]pyrimidin-5-yl]acetate] | > 66.7 |  | 
19 | COC(=O)c1[nH]c(C)c(C(=O)C2C(=O)C(=O)N(CCCN3CCOCC3)C2c2ccccn2)c1C (stereo not drawn) [methyl 4-{[4-hydroxy-1-[3-(4-morpholinyl)propyl]-5-oxo-2-(2-pyridinyl)-2,5-dihydro-1H-pyrrol-3-yl]carbonyl}-3,5-dimethyl-1H-pyrrole-2-carboxylate] | > 66.7 | > 40.3 | 

More lines, now with the values ahead:

Row | IC50 [µM] | Ki [µM] | IC50 (inactive by the depositor's call) [µM] | Compound
20 | > 66.7 |  |  | CCOc1ccccc1NC(=O)CSc1nccn1-c1ccccc1 [MLS000090721]
21 | > 66.7 |  |  | CC(=O)SCC(=O)N=c1sc2cc(F)ccc2n1C [MLS000091388]
22 | > 66.7 |  |  | CCSc1nnc(NC(=O)CSc2nnc(Cc3cccn3C)n2CCc2ccccc2)s1 [MLS000092939]
23 | > 66.7 |  |  | CCOC(=O)c1sc(=S)n2c1[nH]c(=O)c1ccc(C(=O)OC)cc12 [MLS000094734]
24 | > 66.7 |  |  | CCC(C)(C(=O)NC1CCCC1)N(CC1CCCO1)C(=O)c1ccc2c(c1)OCO2 (stereo not drawn) [MLS000095004]
25 | > 66.7 |  |  | Cc1cccc(-n2nc3c(c2NC(=O)c2ccco2)CSC3)c1C [MLS000095654]
26 | > 66.7 |  |  | Cc1cccc(OCC(=O)Nc2cc(C)ccc2O)c1 [MLS000100112]
27 | > 66.7 |  |  | COc1ccc(OC)c(NC(=O)C2C3CCC(C3=C(C)C)C2C(=O)O)c1 (stereo not drawn) [MLS000110216]
28 | 6.9 |  |  | CC(=O)OCCNc1cc(N2CCN(C)CC2)c2noc3c2c1C(=O)c1ccccc1-3 [MLS000118373]
29 | > 66.7 |  |  | COc1ccc(-n2c(Cc3cccn3C)nnc2SCC(=O)Nc2ccc(Cl)cc2)cc1 [MLS000118695]
30 | > 66.7 |  |  | Cc1ccc(NC(=O)C2CCCN2S(=O)(=O)c2cccc3cccnc23)cc1F (stereo not drawn) [MLS000119092]
31 | > 66.7 |  |  | CCOC(=O)c1cc(NC(=O)C2C3CCC(O3)C2C(=O)O)cc(C(=O)OCC)c1 (stereo not drawn) [MLS000521500]
32 | > 66.7 | > 40.3 |  | O=c1c(C23CC4CC(CC(C4)C2)C3)c(O)n(-c2ccccc2)n1-c1ccccc1 [MLS000526352]
33 | > 66.7 |  |  | Cc1[nH]n2c(=O)c3c(nc2c1-c1cccc2ccccc12)CCC3 [MLS000530451]
34 | > 66.7 |  |  | CCC(SC1=Nc2ccccc2C2=NC(CC(C)C)C(=O)N12)C(=O)Nc1ccc2c(c1)OCO2 (stereo not drawn) [N-(1,3-benzodioxol-5-yl)-2-[[2-(2-methylpropyl)-3-oxo-2H-imidazo[1,2-c]quinazolin-5-yl]sulfanyl]butanamide]
35 | > 66.7 |  |  | COCCN1Cc2cccc(C(=O)NCc3ccc4c(c3)OCO4)c2C1=O [N-(1,3-benzodioxol-5-ylmethyl)-2-(2-methoxyethyl)-3-oxoisoindoline-4-carboxamide]
36 | > 66.7 |  |  | COc1ccc(NC(=O)C2C(=O)NC3(C)CC2c2ccccc2O3)cc1 (stereo not drawn) [N-(4-methoxyphenyl)-2-methyl-4-oxo-3,4,5,6-tetrahydro-2H-2,6-methano-1,3-benzoxazocine-5-carboxamide]
37 | > 66.7 |  |  | Cc1cc(NC(=O)CSc2nnc(Cn3c(=O)sc4ccccc43)n2-c2ccccc2C)no1 [N-(5-methyl-3-isoxazolyl)-2-[[4-(2-methylphenyl)-5-[(2-oxo-1,3-benzothiazol-3-yl)methyl]-1,2,4-triazol-3-yl]thio]acetamide]
38 | > 66.7 |  |  | COc1cc2c3c(c1)/C(=C1/SC(NC(C)=O)=NC1=O)C(=O)N3C(C)(C)C=C2C [N-[5-(8-methoxy-4,4,6-trimethyl-2-oxo-4H-pyrrolo[3,2,1-ij]quinolin-1(2H)-ylidene)-4-oxo-4,5-dihydro-1,3-thiazol-2-yl]acetamide]
39 | > 66.7 |  |  | Cc1ccc(C)c(-n2c(CNC(=O)c3ccco3)nnc2SCC(=O)N2CCc3ccccc32)c1 [N-[[5-[2-(2,3-dihydroindol-1-yl)-2-oxoethyl]sulfanyl-4-(2,5-dimethylphenyl)-1,2,4-triazol-3-yl]methyl]furan-2-carboxamide]
